# Reference: US9758494B2, “N-(oxazol-2-yl)-aryl-carboxylic acid amides and use thereof as herbicides” (BAYER CROPSCIENCE AG, priority 2012, dated 2017)
# Assays:
# Assay type in all cases: in vivo
# Oryza sativa (Rice) [1] = assay: Pre-emergence, damage of crop plants
# Text: (§1) Seeds of monocotyledonous and dicotyledonous weed plants and crop plants are laid out in wood-fiber pots in sandy loam and covered with soil. The compounds according to the invention, formulated in the form of wettable powders (WP) or as emulsion concentrates (EC), are then applied to the surface of the soil cover in the form of an aqueous suspension or emulsion at a water application rate equating to 600 to 800 l/ha, with addition of 0.2% wetting agent. After the treatment, the pots are placed in a greenhouse and kept under good growth conditions for the test plants. The damage to the test plants is assessed visually after a test period of 3 weeks by comparison with untreated controls (herbicidal activity in percent (%): 100% activity=the plants have died, 0% activity=like control plants). Here, for example, compounds No. 1-163, 1-171, 1-172, 1-283, 1-284, 1-294, 1-295, 1-334, 10-001 and 11-343, at an application rate of 320 g/ha, have an activity of at least 80% against Veronica persica.
# (§2) In the tables below, the properties of the compounds according to the invention are compared to those of the structurally most similar compounds known from WO 2012/028579 A1. These tests were carried out by the pre- and post-emergence method under the conditions mentioned under item 1 and item 2. Here, the herbicidal activity against various harmful plants and the damage of some important crop plants were compared at different dosages.
# Echinochloa crus galli = assay: Pre-emergence herbicidal action; conditions: Dosage 80/ha (Table H)
# Text: as §1, §2
# Matricaria inodora = assay: Pre-emergence herbicidal action; conditions: Dosage 80/ha (Table H)
# Text: as §1, §2
# Oryza sativa (Rice) [2] = assay: Post-emergence, damage of crop plants; conditions: Dosage 80 g/ha (Table U)
# Description: (§3) Seeds of monocotyledonous and dicotyledonous weed plants and crop plants are laid out in wood fiber pots in sandy loam, covered with soil and cultivated in a greenhouse under good growth conditions. 2 to 3 weeks after sowing, the test plants are treated at the one-leaf stage. The compounds according to the invention, formulated in the form of wettable powders (WP) or as emulsion concentrates (EC), are then sprayed onto the green parts of the plants in the form of an aqueous suspension or emulsion at a water application rate equating to 600 to 800 l/ha, with addition of 0.2% wetting agent. After the test plants have been left to stand in the greenhouse under optimal growth conditions for about 3 weeks, the action of the preparations is assessed visually in comparison to untreated controls (herbicidal action in percent (%): 100% activity=the plants have died, 0% activity=like control plants). Here, for example, compounds No. 1-163, 1-171, 1-172, 1-173, 1-254, 1-283, 1-284, 1-293, 1-294 and 1-334, at an application rate of 80 g/ha, have an activity of at least 80% against Abutilon theophrasti and Amaranthus retroflexus.
# as §2
# Zea mays (Corn) = assay: Post-emergence, damage of crop plants; conditions: Dosage 80 g/ha (Table U)
# Description: as §3, §2
# Veronica persica = assay: Post-emergence herbicidal action; conditions: Dosage 5/ha (Table T)
# Description: as §3, §2
# Stellaria media = assay: Post-emergence herbicidal action; conditions: Dosage 5/ha (Table T)
# Description: as §3, §2
structure (smiles),measurement,setting,value
O=C(Nc1ncco1)c1ccc(C(F)(F)F)nc1Cl [10-1],Damage of ORYZA,Oryza sativa (Rice) [1]; 20 g/ha (Table I),0%
same,Damage of ORYZA,Oryza sativa (Rice) [1]; 80 g/ha (Table I),0%
same,herbicidal activity against harmful plants ECGCG,Echinochloa crus galli,70%
same,herbicidal activity against harmful plants MATIN,Matricaria inodora,90%
same,damage of crop plants ORYZA,Oryza sativa (Rice) [2],0%
same,damage of crop plants ZEAMX,Zea mays (Corn),0%
same,herbicidal activity against harmful plants VERPE,Veronica persica,90%
same,herbicidal activity against harmful plants STEME,Stellaria media,40%
